This is an account of results in paper PMC10466176, “Sequential analysis for identification of byproduct from N-benzylation reaction: wound healing and anti-inflammatory potential of the byproduct 4-chlorobenzyl 2-((4-chlorobenzyl)amino)benzoate” (RSC Advances, 2023).

The experiment addresses T1, COX-2 (cyclooxygenase-2) (Homo sapiens, UniProt P35354).
T1 construct: gene PTGS2
T1 sequence (P35354 18-604): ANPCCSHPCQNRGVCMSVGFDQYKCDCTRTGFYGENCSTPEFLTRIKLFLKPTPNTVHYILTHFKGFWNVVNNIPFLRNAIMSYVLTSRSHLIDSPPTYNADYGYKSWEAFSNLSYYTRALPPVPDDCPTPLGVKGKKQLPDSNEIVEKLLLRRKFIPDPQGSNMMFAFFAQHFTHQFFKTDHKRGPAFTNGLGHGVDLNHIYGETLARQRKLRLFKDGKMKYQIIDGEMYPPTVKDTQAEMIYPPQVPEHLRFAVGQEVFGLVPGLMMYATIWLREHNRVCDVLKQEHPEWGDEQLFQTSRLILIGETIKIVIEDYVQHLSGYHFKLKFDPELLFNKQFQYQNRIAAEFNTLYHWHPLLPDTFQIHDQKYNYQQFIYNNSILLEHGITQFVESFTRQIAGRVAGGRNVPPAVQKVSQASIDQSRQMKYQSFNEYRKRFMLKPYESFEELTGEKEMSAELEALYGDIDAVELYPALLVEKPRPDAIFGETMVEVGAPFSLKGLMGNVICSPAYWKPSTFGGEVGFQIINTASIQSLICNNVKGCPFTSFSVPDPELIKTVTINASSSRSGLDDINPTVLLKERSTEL
As to the kind of experiment: COX-2 enzyme assay with ELISA kit (SEA699Hu). Format: biochemical. On the technique in general: In an ELISA, binding on a coated surface is turned into a signal by an enzyme label.

As a reminder, the IC50 is the concentration needed to halve the response being measured. Read a low IC50 as greater potency in that assay. `O=C(OCc1ccc(Cl)cc1)c1ccccc1NCc1ccc(Cl)cc1` [CCAB, 4-chlorobenzyl 2-((4-chlorobenzyl)amino)benzoate] returned an IC50 of 0.41 µM.
